Key:
[1] = target: T1, AC1 (Homo sapiens, UniProt Q08828); experiment: Inhibition of A23187-mediated (Ca2+-stimulated) cAMP accumulation in HEK cells stably expressing AC1; type: cell-based; details: for inhibition at 4 µM / inhibition at 40 µM: HEK293, read-out: AC1 Inhibition Percentage; for inhibition at 4 µM: 4 μM compound; for inhibition at 40 µM: 40 μM compound; for IC50: HEK cells stably expressing AC1, inhibitors 30 min, then 3 μM A23187 with IBMX, average and S.E.M. of at least three independent experiments, read-out: IC50 for inhibition of the A23187-mediated cAMP response of AC1
T1 construct: expressed in transfected cells
T1 sequence (Q08828 whole entry): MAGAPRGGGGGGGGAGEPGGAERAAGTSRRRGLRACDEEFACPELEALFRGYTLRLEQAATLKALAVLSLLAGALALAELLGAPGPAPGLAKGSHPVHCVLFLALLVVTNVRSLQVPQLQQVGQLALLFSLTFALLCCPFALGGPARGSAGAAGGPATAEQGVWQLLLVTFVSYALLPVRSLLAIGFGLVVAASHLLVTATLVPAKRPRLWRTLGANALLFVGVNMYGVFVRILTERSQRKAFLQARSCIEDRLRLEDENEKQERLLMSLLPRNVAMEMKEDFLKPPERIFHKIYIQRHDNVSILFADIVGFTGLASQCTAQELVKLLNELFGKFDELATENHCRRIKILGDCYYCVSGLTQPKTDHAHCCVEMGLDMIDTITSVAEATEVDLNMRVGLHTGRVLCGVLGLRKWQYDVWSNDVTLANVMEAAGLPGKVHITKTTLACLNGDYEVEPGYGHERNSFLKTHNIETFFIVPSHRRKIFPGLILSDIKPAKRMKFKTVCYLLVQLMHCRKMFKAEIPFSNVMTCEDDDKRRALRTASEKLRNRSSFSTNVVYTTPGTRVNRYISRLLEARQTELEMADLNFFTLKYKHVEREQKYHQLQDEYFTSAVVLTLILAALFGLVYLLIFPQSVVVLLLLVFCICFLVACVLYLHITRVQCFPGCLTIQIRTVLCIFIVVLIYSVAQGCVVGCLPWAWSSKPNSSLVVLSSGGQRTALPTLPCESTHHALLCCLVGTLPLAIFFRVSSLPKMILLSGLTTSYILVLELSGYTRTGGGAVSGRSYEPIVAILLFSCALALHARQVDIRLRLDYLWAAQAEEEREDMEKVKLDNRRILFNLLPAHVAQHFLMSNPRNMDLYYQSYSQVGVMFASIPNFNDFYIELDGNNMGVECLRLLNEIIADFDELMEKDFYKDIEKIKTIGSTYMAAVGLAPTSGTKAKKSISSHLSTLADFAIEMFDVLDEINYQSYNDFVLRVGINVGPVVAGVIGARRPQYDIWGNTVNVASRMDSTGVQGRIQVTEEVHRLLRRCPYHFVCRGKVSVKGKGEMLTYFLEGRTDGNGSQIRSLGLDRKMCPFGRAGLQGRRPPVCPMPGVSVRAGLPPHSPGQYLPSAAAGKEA
Description: HEK cells stably expressing AC1 were treated with inhibitors for 30 min, and subsequently incubated with 3 μM A23187 in the presence of 2 mM IBMX. Data represent the average and S.E.M. of at least three independent experiments.
A23187 is a Ca2+ ionophore, which promotes Ca2+ binding to calmodulin in the cells and, subsequent stimulation of AC1.
HEK (human embryonic kidney) cells stably expressing human AC1, were cultured in Dubelcco's Modified Eagle Medium (Life Technologies, Grand Island, N.Y.) supplemented with 5% bovine calf serum (Hyclone, Logan, Utah), 5% fetal clone I (Hyclone, Logan, Utah), Antibiotic-Antimycotic (Life Technologies, Grand Island, N.Y.), and G418 (Invivogen, San Diego, Calif.). The cells were grown to confluency in 15 cm disses, harvested using Cell Dissociation Buffer (Life Technologies, Grand Island, N.Y.), and resuspended in 4 ml of fetal bovine serum (Hyclone, Logan, Utah) containing 10% dimethyl sulfoxide (Sigma-Aldrich, St. Louis, Mo.). 1 ml of cell suspension was added to cryovials that were incubated overnight at −80° C. in a CoolCell device (BioCision, Larkspur, Calif.) for cryopreservation. On the following day, cryovials were stored in liquid N2 until the assay day.
Cryopreserved HEK-AC1 cells were thawed in a 37° C. water-bath, resuspended in 10 ml optiMEM (Life Technologies, Grand Island, N.Y.) and centrifuged at 500×g for 5 min. The cells were resuspended in 10 ml optiMEM and the centrifugation step was repeated. Cells were then resuspended in 1 ml optiMEM and counted using a Countess automated cell counter (Life Technologies, Grand Island, N.Y.). Cells were added to a white, flat bottom, low-volume, tissue culture-treated 384 well plate (PerkinElmer, Shelton, Conn.) at a final density of 2500 cells/well. The plate was centrifuged for 1 min at 100×g and incubated in a 37° C. humidified incubator for 1 h. […] Following this incubation A23187 (Sigma-Aldrich, St. Louis, Mo.) (3 μM final concentration) containing 3-isobutyl-1-methylxanthine (Sigma-Aldrich, St. Louis, Mo.) (0.5 mM final concentration) was added. The plate was centrifuged for 1 min at 100×g and incubated at room temperature for 1 h. Cyclic AMP accumulation was measured using Cisbio's dynamic 2 kit (Cisbio Bioassays, Bedford, Mass.) according to the manufacturer's instructions. Plates were analyzed for fluorescent emissions at 620 nm and 665 nm using 330 nm as the excitation wavelength in a Cytation 3 Cell Imaging Multi-Mode Reader (Biotek, Winooski, Vt.), and ratiometric analysis was carried out by dividing the 665 nm emissions by the 620 nm emissions to extrapolate the cAMP concentrations from a cAMP standard curve. The data represent the average of at least three independent experiments ran in duplicate.

[2] = test system: neuroinflammatory and neuropathic pain rodent models; details: cited from earlier work

| SMILES | inhibition at 4 µM [1] [%] | inhibition at 40 µM [1] [%] | IC50 [1] [µM] | analgesic effects [2] |
| --- | --- | --- | --- | --- |
| COC(=O)CCCN(C/C=C/c1ccc(Cl)cc1)Cc1ccc(F)cc1 [Compound 7gc, (E)-methyl 4-((3-(4-chlorophenyl)allyl)(4-fluorobenzyl)amino)butanoate] | -24 | 70 |  |  |
| CCOC(=O)c1ccc(/C=C/CN(CCCC(=O)OC)Cc2ccc(F)cc2)cc1 [Compound 7gd, (E)-ethyl 4-(3-((4-fluorobenzyl)(4-methoxy-4-oxobutyl)amino)prop-1-enyl)benzoate] | -24 | 71 |  |  |
| Cc1ccc(S(=O)(=O)N2CCCN(C/C=C/c3ccccc3)CC2)cc1 [Compound 7ha, 1-cinnamyl-4-tosyl-1,4-diazepane] | 6 | 73 |  |  |
| Cc1ccc(/C=C/CN2CCCN(S(=O)(=O)c3ccc(C)cc3)CC2)cc1 [Compound 7hb, (E)-1-(3-p-tolylallyl)-4-tosyl-1,4-diazepane] | -26 | 27 |  |  |
| Cc1ccc(S(=O)(=O)N2CCCN(C/C=C/c3ccc(Cl)cc3)CC2)cc1 [Compound 7hc, (E)-1-(3-(4-chlorophenyl)allyl)-4-tosyl-1,4-diazepane] | -5.5 | 85 |  |  |
| COc1ccc2c(c1)C(c1ccccc1)CN(CC=Cc1ccccc1)CC2 (stereo not drawn) [Compound 7ja, 3-cinnamyl-8-methoxy-1-phenyl-2,3,4,5-tetrahydro-1H-benzo[d]azepine] | 72 | 95 |  |  |
| COc1ccc2c(c1)C(c1ccccc1)CN(C/C=C/c1ccc(C)cc1)CC2 (stereo not drawn) [Compound 7jb, (E)-8-methoxy-1-phenyl-3-(3-p-tolylallyl)-2,3,4,5-tetrahydro-1H-benzo[d]azepine] | 43 | 90 | 16.7 |  |
| COc1ccc2c(c1)C(c1ccccc1)CN(C/C=C/c1ccc(F)cc1)CC2 (stereo not drawn) [Compound 7jd, (E)-3-(3-(4-fluorophenyl)allyl)-8-methoxy-1-phenyl-2,3,4,5-tetrahydro-1H-benzo[d]azepine] | 49 | 91 | 14.8 |  |
| Nc1ncnc2c1ncn2CCNCCCCCO [NB001] |  |  |  | analgesic effects |

Now from value to molecule, other results behind:

| inhibition at 4 µM [1] [%] | inhibition at 40 µM [1] [%] | IC50 [1] [µM] | SMILES | analgesic effects [2] |
| --- | --- | --- | --- | --- |
| -3 | 51 |  | COc1ccc2c(c1)C(c1ccccc1)CN(C/C=C/c1ccc(I)cc1)CC2 (stereo not drawn) [Compound 7jc, (E)-3-(3-(4-iodophenyl)allyl)-8-methoxy-1-phenyl-2,3,4,5-tetrahydro-1H-benzo[d]azepine] |  |
| 33 | 78 | 9.1 | COc1ccc2c(c1)C(c1ccccc1)CN(C/C=C/c1ccc(Cl)cc1)CC2 (stereo not drawn) [Compound 7je, (E)-3-(3-(4-chlorophenyl)allyl)-8-methoxy-1-phenyl-2,3,4,5-tetrahydro-1H-benzo[d]azepine] |  |
| 17 | 88 |  | COc1ccc2c(c1)C(c1ccccc1)CN(C/C=C/c1ccc(C(F)(F)F)cc1)CC2 (stereo not drawn) [Compound 7jf, (E)-8-methoxy-1-phenyl-3-(3-(4-(trifluoromethyl)phenyl)allyl)-2,3,4,5-tetrahydro-1H-benzo[d]azepine] |  |
| 8 | 11 |  | COc1ccc2c(c1)C(c1ccc(Br)cc1)CN(C/C=C/c1ccc(C)cc1)CC2 (stereo not drawn) [Compound 7kb, (E)-1-(4-bromophenyl)-8-methoxy-3-(3-p-tolylallyl)-2,3,4,5-tetrahydro-1H-benzo[d]azepine] |  |
| 32 | 32 |  | COc1ccc2c(c1)C(c1ccc(Br)cc1)CN(C/C=C/c1ccc(Cl)cc1)CC2 (stereo not drawn) [Compound 7kc, (E)-1-(4-bromophenyl)-3-(3-(4-chlorophenyl)allyl)-8-methoxy-2,3,4,5-tetrahydro-1H-benzo[d]azepine] |  |

— patent US10100001B2, “Adenylyl cyclase inhibitors for neuropathic and inflammatory pain” (Purdue Research Foundation, priority 2015, dated 2018)
